Assay results as given in patent US20120016009A1, “Optimized Methods For Delivery Of DSRNA Targeting The PCSK9 Gene” (priority 2008, published 2012).
In the oligonucleotide strings, read from the 5' end, every base follows the letter of its sugar. An asterisk marks phosphorothioate; unmarked linkages are phosphodiester. Other units and linkages are bracketed, terminal groups are in braces. A string of capitals states the bases alone. d = 2'-deoxy (DNA); m = 2'-O-methyl; r = 2'-OH (RNA)

System: PCSK9 mRNA
Experiment: PCSK9 siRNA screening in HepG2 cells (lipofectamine 2000 transfection, PCSK9 mRNA by Quantigene, normalized to GAP-DH)
Format: cell-based, human
Conditions: for Mean percent remaining mRNA transcript at siRNA concentration/in cell type 30 nM/HepG2: 30 nM siRNA; for Mean percent remaining mRNA transcript at siRNA concentration/in cell type 100 nM/HepG2: 100 nM siRNA; for Mean percent remaining mRNA transcript at siRNA concentration/in cell type 3 nM/HepG2: 3 nM siRNA
Method: HuH-7 cells were obtained from JCRB Cell Bank (Japanese Collection of Research Bioresources) (Shinjuku, Japan, cat. No.: JCRB0403) Cells were cultured in Dulbecco's MEM (Biochrom AG, Berlin, Germany, cat. No. F0435) supplemented to contain 10% fetal calf serum (FCS) (Biochrom AG, Berlin, Germany, cat. No. S0115), Penicillin 100 U/ml, Streptomycin 100 μg/ml (Biochrom AG, Berlin, Germany, cat. No. A2213) and 2 mM L-Glutamin (Biochrom AG, Berlin, Germany, cat. No K0282) at 37° C. in an atmosphere with 5% CO2 in a humidified incubator (Heraeus HERAcell, Kendro Laboratory Products, Langenselbold, Germany) HepG2 and HeLa cells were obtained from American Type Culture Collection (Rockville, Md., cat. No. HB-8065) and cultured in MEM (Gibco Invitrogen, Karlsruhe, Germany, cat. No. 21090-022) supplemented to contain 10% fetal calf serum (FCS) (Biochrom AG, Berlin, Germany, cat. No. S0115), Penicillin 100 U/ml, Streptomycin 100 μg/ml (Biochrom AG, Berlin, Germany, cat. No. A2213), 1× Non Essential Amino Acids (Biochrom AG, Berlin, Germany, cat. No. K-0293), and 1 mM Sodium Pyruvate (Biochrom AG, Berlin, Germany, cat. No. L-0473) at 37° C. in an atmosphere with 5% CO2 in a humidified incubator (Heraeus HERAcell, Kendro Laboratory Products, Langenselbold, Germany).
For transfection with siRNA, HuH7, HepG2, or HeLa cells were seeded at a density of 2.0×10^4 cells/well in 96-well plates and transfected directly. Transfection of siRNA (30 nM for single dose screen) was carried out with lipofectamine 2000 (Invitrogen GmbH, Karlsruhe, Germany, cat. No. 11668-019) as described by the manufacturer.
24 hours after transfection HuH7 and HepG2 cells were lysed and PCSK9 mRNA levels were quantified with the Quantigene Explore Kit (Genosprectra, Dumbarton Circle Fremont, USA, cat. No. QG-000-02) according to the protocol. PCSK9 mRNA levels were normalized to GAP-DH mRNA. For each siRNA eight individual datapoints were collected. siRNA duplexes unrelated to PCSK9 gene were used as control. The activity of a given PCSK9 specific siRNA duplex was expressed as percent PCSK9 mRNA concentration in treated cells relative to PCSK9 mRNA concentration in cells treated with the control siRNA duplex.
Tables 1b and 2b (and FIG. 6A) summarize the results and provide examples of in vitro screens in different cell lines at different doses. Silencing of PCSK9 transcript was expressed as percentage of remaining transcript at a given dose.
Very active sequences are those that have less than 60% of transcript remaining after treatment with a dose less than or equal to 100 nM. Active sequences are those that have less than 90% transcript remaining after treatment with a high dose (100 nM).

| Substance | Mean percent remaining mRNA transcript at siRNA concentration/in cell type 30 nM/HepG2 | Mean percent remaining mRNA transcript at siRNA concentration/in cell type 100 nM/HepG2 | Mean percent remaining mRNA transcript at siRNA concentration/in cell type 3 nM/HepG2 | IC50 |
| --- | --- | --- | --- | --- |
| AD-9586: PCSK9 siRNA (sense rGrArCrArUrCrArUrUrGrGrUrGrCrCrUrCrCrAdT*dT; antisense rUrGrGrArGrGrCrArCrCrArArUrGrArUrGrUrCdT*dT) | 104% | 81% |  |  |
| AD-9529: PCSK9 siRNA (sense rGrGrGrArUrArCrCrUrCrArCrCrArArGrArUrCdT*dT; antisense rGrArUrCrUrUrGrGrUrGrArGrGrUrArUrCrCrCdT*dT) | 60% |  |  |  |
| AD-9526: PCSK9 siRNA (sense rUrCrCrCrArGrCrCrArGrGrArUrUrCrCrGrCrGdT*dT; antisense rCrGrCrGrGrArArUrCrCrUrGrGrCrUrGrGrGrAdT*dT) | 89% | 74% |  |  |
| AD-9594: PCSK9 siRNA (sense rGrCrUrGrCrCrGrGrCrArArCrUrUrCrCrGrGrGdT*dT; antisense rCrCrCrGrGrArArGrUrUrGrCrCrGrGrCrArGrCdT*dT) | 95% | 80% |  |  |
| AD-9744: PCSK9 siRNA (sense rGrArGmCrAmUrGrGrArAmUmCmCmCrGrGmCmCmCdT*dT; antisense rGrGrGrCrCrGrGrGrArUrUrCmCrArUrGrCrUrCdT*dT) | 91% |  |  |  |
| AD-9741: PCSK9 siRNA (sense mUmUmCmCrGrGrGrAmCrGrAmUrGmCmCmUrGmCmCdT*dT; antisense rGrGmCrArGrGmCrArUrCrGrUrCrCrCrGrGrArAdT*dT) | 130% |  |  |  |
| AD-9577: PCSK9 siRNA (sense rCrArCrCrArArGrGrArGrGrCrArGrGrArUrUrCdT*dT; antisense rGrArArUrCrCrUrGrCrCrUrCrCrUrUrGrGrUrGdT*dT) | 33% |  | 31% |  |
| AD-9611: PCSK9 siRNA (sense rUrCrCrUrArGrArCrArCrCrArGrCrArUrArCrAdT*dT; antisense rUrGrUrArUrGrCrUrGrGrUrGrUrCrUrArGrGrAdT*dT) | 48% |  |  |  |
| AD-9704: PCSK9 siRNA (sense mCrAmUmUmUrAmUmCmUmUmUmUrGrGrGmUmCmUrGdT*dT; antisense mCrArGrArCrCmCrArArArArGrAmUrArArArUrGdT*dT) | 111% |  |  |  |
| AD-9556: PCSK9 siRNA (sense rUrGrGrUrGrGrArGrGrUrGrUrArUrCrUrCrCrUdT*dT; antisense rArGrGrArGrArUrArCrArCrCrUrCrCrArCrCrAdT*dT) | 46% |  |  |  |
| AD-9324: PCSK9 siRNA (sense rGrCrCrArUrCrUrGrCrUrGrCrCrGrGrArGrCrCdT*dT; antisense rGrGrCrUrCrCrGrGrCrArGrCrArGrArUrGrGrCdT*dT) | 59% |  | 67% |  |
| AD-9605: PCSK9 siRNA (sense rUrGrGrUrGrArArGrArUrGrArGrUrGrGrCrGrAdT*dT; antisense rUrCrGrCrCrArCrUrCrArUrCrUrUrCrArCrCrAdT*dT) | 27% |  | 31% | 0.27 nM |
| AD-9702: PCSK9 siRNA (sense rGmCrArGrArGrAmCmUrGrAmUmCmCrAmCmUmUmCdT*dT; antisense rGrArArGrUrGrGrArUmCrArGrUrCrUrCrUrGrCdT*dT) | 79% |  |  |  |
| AD-9552: PCSK9 siRNA (sense rArGrGrArGrCrArUrGrGrArArUrCrCrCrGrGrCdT*dT; antisense rGrCrCrGrGrGrArUrUrCrCrArUrGrCrUrCrCrUdT*dT) | 80% |  |  |  |
| AD-9571: PCSK9 siRNA (sense rGrCrCrArGrGrUrGrCrUrGrCrCrUrGrCrUrArCdT*dT; antisense rGrUrArGrCrArGrGrCrArGrCrArCrCrUrGrGrCdT*dT) | 27% |  | 32% |  |
| AD-9533: PCSK9 siRNA (sense rGrArCrCrArCrCrGrGrGrArArArUrCrGrArGrGdT*dT; antisense rCrCrUrCrGrArUrUrUrCrCrCrGrGrUrGrGrUrCdT*dT) | 100% |  |  |  |
| AD-9622: PCSK9 siRNA (sense rCrUrGrUrCrCrCrUrCrCrUrUrGrArGrCrArCrCdT*dT; antisense rGrGrUrGrCrUrCrArArGrGrArGrGrGrArCrArGdT*dT) | 94% |  |  |  |
| AD-9684: PCSK9 siRNA (sense mUrAmUmCmUmUmUmUrGrGrGmUmCmUrGmUmCmCmUdT*dT; antisense rArGrGrAmCrArGrArCrCmCrArArArArGrAmUrAdT*dT) | 63% |  |  |  |
| AD-9539: PCSK9 siRNA (sense rGrGrUrGrGrArGrGrUrGrUrArUrCrUrCrCrUrAdT*dT; antisense rUrArGrGrArGrArUrArCrArCrCrUrCrCrArCrCdT*dT) | 63% | 56% |  |  |
| AD-9633: PCSK9 siRNA (sense rUrGrGrUrCrArCrCrGrCrUrGrCrCrGrGrCrArAdT*dT; antisense rUrUrGrCrCrGrGrCrArGrCrGrGrUrGrArCrCrAdT*dT) | 75% | 56% |  |  |
| AD-9582: PCSK9 siRNA (sense rCrCrArGrCrArUrCrCrArCrGrCrUrUrCrCrUrGdT*dT; antisense rCrArGrGrArArGrCrGrUrGrGrArUrGrCrUrGrGdT*dT) | 37% |  |  |  |
| AD-9629: PCSK9 siRNA (sense rUrCrUrGrGrGrUrUrUrUrGrUrArGrCrArUrUrUdT*dT; antisense rArArArUrGrCrUrArCrArArArArCrCrCrArGrAdT*dT) | 23% |  | 24% |  |
| AD-9743: PCSK9 siRNA (sense rAmUrGmCmUrGmUmCmUrGmCmCrGrArGmCmCrGrGdT*dT; antisense rCrCrGrGrCrUrCrGrGmCrArGrAmCrArGmCrArUdT*dT) | 104% |  |  |  |
| AD-9764: PCSK9 siRNA (sense mCmUrGrGrArGmUmUmUrAmUmUmCrGrGrArArArAdT*dT; antisense rUrUrUrUrCrCrGrArAmUrArArArCrUrCmCrArGdT*dT) | 112% |  |  |  |
| AD-9636: PCSK9 siRNA (sense rCrArUrArCrArGrArGrUrGrArCrCrArCrCrGrGdT*dT; antisense rCrCrGrGrUrGrGrUrCrArCrUrCrUrGrUrArUrGdT*dT) | 42% |  | 41% | 2.1 nM |
| AD-9590: PCSK9 siRNA (sense rArCrCrArArCrUrUrUrGrGrCrCrGrCrUrGrUrGdT*dT; antisense rCrArCrArGrCrGrGrCrCrArArArGrUrUrGrGrUdT*dT) | 122% |  |  |  |
| AD-9598: PCSK9 siRNA (sense rCrCrUrGrGrUrGrGrArGrGrUrGrUrArUrCrUrCdT*dT; antisense rGrArGrArUrArCrArCrCrUrCrCrArCrCrArGrGdT*dT) | 83% | 69% |  |  |
| AD-9707: PCSK9 siRNA (sense mUrGmCrGmCrGmUrGmCmUmCrArAmCmUrGmCmCrAdT*dT; antisense rUrGrGmCrArGrUrUrGrArGmCrArCrGrCrGmCrAdT*dT) | 81% |  |  |  |
| AD-9620: PCSK9 siRNA (sense rCrArGrGrArGrCrCrGrGrGrArCrGrUrCrArGrCdT*dT; antisense rGrCrUrGrArCrGrUrCrCrCrGrGrCrUrCrCrUrGdT*dT) | 77% | 44% |  |  |
